How the values were obtained:
Assay in all cases: Kinase inhibitory activity profiling of RI-962@10 µM (406 kinases, Eurofins)
Format in all cases: biochemical
[1] = target: panel of human kinases (kinase named in endpoint) (Homo sapiens, UniProt Q8WU08); settings: 10 µM; read-out: Activity (%), STK32A(h)
Method in brief: (§1)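 Radiometric filter-binding kinase assays: enzyme preincubated 15 min with compound in 8 mM MOPS pH 7.0, 0.2 mM EDTA, 250 μM peptide substrate, 10 mM magnesium acetate, 10 μM [γ-33P]-ATP. Reaction started with Mg/ATP, run 40 min at room temperature, stopped with phosphoric acid; 33P incorporation read by scintillation counting. Other kinases by similar protocols.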

[2] = target: panel of human kinases (kinase named in endpoint) (Homo sapiens, UniProt P42336, E542K); settings: 10 µM; read-out: Activity (%), PI3(p110a(E542K)/p85a)
Method in brief: as §1

[3] = target: panel of human kinases (kinase named in endpoint) (Homo sapiens, UniProt Q86UE8); settings: 10 µM; read-out: Activity (%), TLK2(h)
Method in brief: as §1

[4] = target: panel of human kinases (kinase named in endpoint) (Homo sapiens, UniProt P17612); settings: 10 µM; read-out: Activity (%), PKA(h)
Method in brief: as §1

[5] = target: panel of human kinases (kinase named in endpoint) (Homo sapiens, UniProt Q6IQ55); settings: 10 µM; read-out: Activity (%), TTBK2(h)
panel of human kinases (kinase named in endpoint) (Homo sapiens, UniProt Q6IQ55), sequence (Q6IQ55 whole entry): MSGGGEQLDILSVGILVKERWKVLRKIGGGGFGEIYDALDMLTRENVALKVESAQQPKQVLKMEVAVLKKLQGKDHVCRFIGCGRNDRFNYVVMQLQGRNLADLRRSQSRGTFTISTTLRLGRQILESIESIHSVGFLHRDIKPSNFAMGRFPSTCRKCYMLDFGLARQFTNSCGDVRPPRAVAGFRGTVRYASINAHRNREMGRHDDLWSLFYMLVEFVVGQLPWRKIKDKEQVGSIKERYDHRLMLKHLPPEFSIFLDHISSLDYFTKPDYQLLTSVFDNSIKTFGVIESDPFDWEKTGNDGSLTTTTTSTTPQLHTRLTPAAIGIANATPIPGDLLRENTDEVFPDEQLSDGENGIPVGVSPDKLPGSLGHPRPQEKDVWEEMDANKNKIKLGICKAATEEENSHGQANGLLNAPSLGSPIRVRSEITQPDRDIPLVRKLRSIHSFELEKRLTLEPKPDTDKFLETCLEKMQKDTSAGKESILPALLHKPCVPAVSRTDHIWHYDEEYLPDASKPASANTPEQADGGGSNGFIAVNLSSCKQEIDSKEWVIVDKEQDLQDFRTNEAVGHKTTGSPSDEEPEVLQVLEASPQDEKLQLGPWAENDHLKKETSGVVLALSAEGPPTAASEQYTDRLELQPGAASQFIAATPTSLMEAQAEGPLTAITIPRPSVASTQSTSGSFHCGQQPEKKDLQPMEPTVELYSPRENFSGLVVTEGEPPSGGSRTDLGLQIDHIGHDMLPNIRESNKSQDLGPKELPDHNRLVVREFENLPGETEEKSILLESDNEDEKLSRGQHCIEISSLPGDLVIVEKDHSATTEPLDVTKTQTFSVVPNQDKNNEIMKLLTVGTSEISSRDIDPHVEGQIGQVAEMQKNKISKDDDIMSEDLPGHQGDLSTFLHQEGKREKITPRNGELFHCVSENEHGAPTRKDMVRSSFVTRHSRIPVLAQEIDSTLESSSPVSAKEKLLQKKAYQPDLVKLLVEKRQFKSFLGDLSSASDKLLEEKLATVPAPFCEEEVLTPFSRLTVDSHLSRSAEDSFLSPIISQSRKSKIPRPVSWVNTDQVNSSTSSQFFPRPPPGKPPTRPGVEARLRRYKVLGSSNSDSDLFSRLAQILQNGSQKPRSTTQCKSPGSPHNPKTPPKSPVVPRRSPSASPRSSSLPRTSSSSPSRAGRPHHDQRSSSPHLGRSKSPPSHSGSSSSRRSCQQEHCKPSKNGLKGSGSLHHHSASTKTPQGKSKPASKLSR
Method in brief: as §1

[6] = target: panel of human kinases (kinase named in endpoint) (Homo sapiens, UniProt Q00532); settings: 10 µM; read-out: Activity (%), CDKL1(h)
Method in brief: as §1

[7] = target: panel of human kinases (kinase named in endpoint) (Homo sapiens, UniProt Q9H2G2); settings: 10 µM; read-out: Activity (%), SLK(h)
Method in brief: as §1

[8] = target: panel of human kinases (kinase named in endpoint) (Homo sapiens, UniProt P42680); settings: 10 µM; read-out: Activity (%), Tec(h) activated
Method in brief: as §1

[9] = target: panel of human kinases (kinase named in endpoint) (Homo sapiens, UniProt Q6PHR2); settings: 10 µM; read-out: Activity (%), ULK3(h)
Method in brief: as §1

[10] = target: panel of human kinases (kinase named in endpoint) (Homo sapiens, UniProt P24723); settings: 10 µM; read-out: Activity (%), PKCη(h)
panel of human kinases (kinase named in endpoint) (Homo sapiens, UniProt P24723), sequence (P24723 whole entry): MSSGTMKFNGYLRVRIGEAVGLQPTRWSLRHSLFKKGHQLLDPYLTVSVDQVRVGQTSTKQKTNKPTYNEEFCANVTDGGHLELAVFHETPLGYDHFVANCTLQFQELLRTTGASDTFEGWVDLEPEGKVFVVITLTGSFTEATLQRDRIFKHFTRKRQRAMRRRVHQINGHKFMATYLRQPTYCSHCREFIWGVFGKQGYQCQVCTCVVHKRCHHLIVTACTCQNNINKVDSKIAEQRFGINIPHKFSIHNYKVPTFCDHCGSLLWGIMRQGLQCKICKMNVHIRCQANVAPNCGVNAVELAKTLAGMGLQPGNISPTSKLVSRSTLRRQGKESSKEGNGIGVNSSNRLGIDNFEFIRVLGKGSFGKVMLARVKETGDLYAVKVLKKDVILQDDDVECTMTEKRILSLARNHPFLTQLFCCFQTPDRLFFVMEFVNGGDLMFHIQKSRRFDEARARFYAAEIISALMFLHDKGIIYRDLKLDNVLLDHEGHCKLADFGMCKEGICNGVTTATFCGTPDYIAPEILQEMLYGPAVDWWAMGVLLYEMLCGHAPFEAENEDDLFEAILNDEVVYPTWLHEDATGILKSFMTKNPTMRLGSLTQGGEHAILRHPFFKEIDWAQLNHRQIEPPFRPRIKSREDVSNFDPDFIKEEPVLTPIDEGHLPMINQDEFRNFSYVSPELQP
Method in brief: as §1

[11] = target: panel of human kinases (kinase named in endpoint) (Homo sapiens, UniProt Q9Y5S2); settings: 10 µM; read-out: Activity (%), MRCKβ(h)
Method in brief: as §1

[12] = target: panel of human kinases (kinase named in endpoint) (Homo sapiens, UniProt P33981); settings: 10 µM; read-out: Activity (%), TTK(h)
Method in brief: as §1

[13] = target: panel of human kinases (kinase named in endpoint) (Homo sapiens, UniProt P42685); settings: 10 µM; read-out: Activity (%), PTK5(h)
Method in brief: as §1

[14] = target: panel of human kinases (kinase named in endpoint) (Homo sapiens, UniProt P29597); settings: 10 µM; read-out: Activity (%), TYK2(h)
Method in brief: as §1

[15] = target: panel of human kinases (kinase named in endpoint) (Homo sapiens, UniProt Q2M2I8); settings: 10 µM; read-out: Activity (%), AAK1(h)
Method in brief: as §1

[16] = target: panel of human kinases (kinase named in endpoint) (Homo sapiens, UniProt P16234, V561D); settings: 10 µM; read-out: Activity (%), PDGFRα(V561D)(h)
panel of human kinases (kinase named in endpoint) (Homo sapiens, UniProt P16234, V561D), sequence (P16234 24-1089 V561D): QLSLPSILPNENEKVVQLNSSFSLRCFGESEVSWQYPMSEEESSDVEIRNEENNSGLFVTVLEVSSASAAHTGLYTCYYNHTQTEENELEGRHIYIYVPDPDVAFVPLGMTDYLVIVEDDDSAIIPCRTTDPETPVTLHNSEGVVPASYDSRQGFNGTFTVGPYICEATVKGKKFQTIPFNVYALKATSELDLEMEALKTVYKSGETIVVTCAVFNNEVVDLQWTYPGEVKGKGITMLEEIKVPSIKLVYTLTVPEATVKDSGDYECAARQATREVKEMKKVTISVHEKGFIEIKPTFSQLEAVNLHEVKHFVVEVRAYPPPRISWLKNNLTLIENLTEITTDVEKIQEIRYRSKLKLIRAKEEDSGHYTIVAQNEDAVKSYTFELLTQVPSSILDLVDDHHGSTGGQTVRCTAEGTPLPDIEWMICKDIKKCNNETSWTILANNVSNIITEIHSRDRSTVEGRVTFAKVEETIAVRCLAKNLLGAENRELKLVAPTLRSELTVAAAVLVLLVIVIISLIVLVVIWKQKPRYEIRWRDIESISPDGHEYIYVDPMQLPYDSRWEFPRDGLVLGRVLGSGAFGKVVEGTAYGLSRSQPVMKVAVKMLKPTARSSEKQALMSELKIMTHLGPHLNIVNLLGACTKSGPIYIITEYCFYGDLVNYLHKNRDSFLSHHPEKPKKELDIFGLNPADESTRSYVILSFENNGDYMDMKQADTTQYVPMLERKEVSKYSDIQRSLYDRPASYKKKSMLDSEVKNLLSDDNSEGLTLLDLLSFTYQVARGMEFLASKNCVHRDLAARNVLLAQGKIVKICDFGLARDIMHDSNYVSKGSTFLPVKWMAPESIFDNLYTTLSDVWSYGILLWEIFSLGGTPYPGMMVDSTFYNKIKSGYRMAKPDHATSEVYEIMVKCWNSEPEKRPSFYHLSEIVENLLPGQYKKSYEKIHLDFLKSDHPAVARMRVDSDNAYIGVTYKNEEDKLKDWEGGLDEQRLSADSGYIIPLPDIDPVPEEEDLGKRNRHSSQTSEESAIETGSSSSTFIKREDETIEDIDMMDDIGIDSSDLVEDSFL
Method in brief: as §1

[17] = target: panel of human kinases (kinase named in endpoint) (Homo sapiens, UniProt P54762); settings: 10 µM; read-out: Activity (%), EphB1(h)
Method in brief: as §1

[18] = target: panel of human kinases (kinase named in endpoint) (Homo sapiens, UniProt P57059); settings: 10 µM; read-out: Activity (%), SIK(h)
Method in brief: as §1

[19] = target: panel of human kinases (kinase named in endpoint) (Homo sapiens, UniProt P41240); settings: 10 µM; read-out: Activity (%), CSK(h)
Method in brief: as §1

[20] = target: panel of human kinases (kinase named in endpoint) (Homo sapiens, UniProt P49841); settings: 10 µM; read-out: Activity (%), GSK3β(h)
panel of human kinases (kinase named in endpoint) (Homo sapiens, UniProt P49841), sequence (P49841 whole entry): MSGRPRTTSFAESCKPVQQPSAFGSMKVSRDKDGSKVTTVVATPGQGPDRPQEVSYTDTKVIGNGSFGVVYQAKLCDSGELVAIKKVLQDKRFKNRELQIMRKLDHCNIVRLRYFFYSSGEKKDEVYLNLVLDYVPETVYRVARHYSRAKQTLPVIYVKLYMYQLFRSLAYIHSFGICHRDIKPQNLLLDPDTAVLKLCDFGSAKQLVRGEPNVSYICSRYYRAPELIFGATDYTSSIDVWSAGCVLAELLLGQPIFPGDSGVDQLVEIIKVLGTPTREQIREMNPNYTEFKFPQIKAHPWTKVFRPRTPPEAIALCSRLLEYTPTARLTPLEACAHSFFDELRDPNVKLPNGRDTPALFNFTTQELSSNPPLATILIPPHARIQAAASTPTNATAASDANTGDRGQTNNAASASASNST
Method in brief: as §1

[21] = target: panel of human kinases (kinase named in endpoint) (Homo sapiens, UniProt Q96J92); settings: 10 µM; read-out: Activity (%), WNK4(h)
Method in brief: as §1

[22] = target: panel of human kinases (kinase named in endpoint) (Mus musculus, UniProt Q4JIM5); settings: 10 µM; read-out: Activity (%), Arg(m)
Method in brief: as §1

[23] = target: panel of human kinases (kinase named in endpoint) (Homo sapiens, UniProt Q5S007); settings: 10 µM; read-out: Activity (%), LRRK2(h)
Method in brief: as §1

[24] = target: panel of human kinases (kinase named in endpoint) (Homo sapiens, UniProt Q16620); settings: 10 µM; read-out: Activity (%), TrkB(h)
panel of human kinases (kinase named in endpoint) (Homo sapiens, UniProt Q16620), sequence (Q16620 32-822): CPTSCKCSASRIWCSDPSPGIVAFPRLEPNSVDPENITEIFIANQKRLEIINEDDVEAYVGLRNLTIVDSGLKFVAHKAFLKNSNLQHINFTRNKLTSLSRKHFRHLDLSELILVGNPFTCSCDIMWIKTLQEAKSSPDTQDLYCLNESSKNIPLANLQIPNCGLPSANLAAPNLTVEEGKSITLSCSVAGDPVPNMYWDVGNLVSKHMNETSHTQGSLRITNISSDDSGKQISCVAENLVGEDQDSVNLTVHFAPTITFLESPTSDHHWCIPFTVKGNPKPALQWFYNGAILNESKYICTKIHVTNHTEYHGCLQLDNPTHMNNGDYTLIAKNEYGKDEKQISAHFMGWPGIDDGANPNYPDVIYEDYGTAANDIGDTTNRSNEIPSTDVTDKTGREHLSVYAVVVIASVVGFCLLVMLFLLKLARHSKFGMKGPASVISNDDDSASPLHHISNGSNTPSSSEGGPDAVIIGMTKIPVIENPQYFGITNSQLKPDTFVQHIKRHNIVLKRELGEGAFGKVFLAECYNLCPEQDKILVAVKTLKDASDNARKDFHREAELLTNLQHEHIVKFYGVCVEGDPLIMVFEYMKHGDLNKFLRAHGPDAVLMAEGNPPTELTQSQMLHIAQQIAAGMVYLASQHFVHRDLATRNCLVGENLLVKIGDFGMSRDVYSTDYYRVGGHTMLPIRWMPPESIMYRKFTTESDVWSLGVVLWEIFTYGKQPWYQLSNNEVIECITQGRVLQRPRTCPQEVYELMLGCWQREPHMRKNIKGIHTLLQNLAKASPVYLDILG
Method in brief: as §1

[25] = target: panel of human kinases (kinase named in endpoint) (Homo sapiens, UniProt P06493); settings: 10 µM; read-out: Activity (%), CDK1/cyclinB(h)
Method in brief: as §1

[26] = target: panel of human kinases (kinase named in endpoint) (Homo sapiens, UniProt P16591); settings: 10 µM; read-out: Activity (%), Fer(h)
panel of human kinases (kinase named in endpoint) (Homo sapiens, UniProt P16591), sequence (P16591 whole entry): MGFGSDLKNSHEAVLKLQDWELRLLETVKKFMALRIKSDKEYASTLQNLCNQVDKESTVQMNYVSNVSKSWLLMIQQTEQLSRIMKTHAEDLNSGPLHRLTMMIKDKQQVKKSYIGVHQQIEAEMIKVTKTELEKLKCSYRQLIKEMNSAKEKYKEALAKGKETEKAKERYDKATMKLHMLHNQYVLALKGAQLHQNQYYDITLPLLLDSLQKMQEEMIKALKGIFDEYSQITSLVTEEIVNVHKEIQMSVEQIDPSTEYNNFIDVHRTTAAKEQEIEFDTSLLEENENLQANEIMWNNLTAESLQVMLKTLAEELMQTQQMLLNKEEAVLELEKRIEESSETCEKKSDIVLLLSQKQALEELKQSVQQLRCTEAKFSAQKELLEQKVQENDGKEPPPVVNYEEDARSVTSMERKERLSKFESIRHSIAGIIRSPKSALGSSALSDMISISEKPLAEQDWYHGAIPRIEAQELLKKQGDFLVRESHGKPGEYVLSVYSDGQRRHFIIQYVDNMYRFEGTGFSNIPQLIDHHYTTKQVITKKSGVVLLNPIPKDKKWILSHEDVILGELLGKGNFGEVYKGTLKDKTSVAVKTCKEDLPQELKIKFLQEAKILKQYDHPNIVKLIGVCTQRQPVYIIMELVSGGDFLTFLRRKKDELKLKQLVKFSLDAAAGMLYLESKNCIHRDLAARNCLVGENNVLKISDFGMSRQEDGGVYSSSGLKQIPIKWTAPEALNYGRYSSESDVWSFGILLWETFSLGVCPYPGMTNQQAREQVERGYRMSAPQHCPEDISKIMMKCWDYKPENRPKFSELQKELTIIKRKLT
Method in brief: as §1

## CC(C)C(=O)Nc1nc2cc(-c3ccc4c(c3)c(C(=O)NC(C)c3ccccc3)cn4C)ccn2n1 (centres unmarked) [RI-962]
[1]
  activity at 10 µM: 113%
[2]
  activity at 10 µM: 97%
[3]
  activity at 10 µM: 78%
[4]
  activity at 10 µM: 97%
[5]
  activity at 10 µM: 81%
[6]
  activity at 10 µM: 98%
[7]
  activity at 10 µM: 84%
[8]
  activity at 10 µM: 103%
[9]
  activity at 10 µM: 68%
[10]
  activity at 10 µM: 99%
[11]
  activity at 10 µM: 79%
[12]
  activity at 10 µM: 92%
[13]
  activity at 10 µM: 104%
[14]
  activity at 10 µM: 113%
[15]
  activity at 10 µM: 106%
[16]
  activity at 10 µM: 102%
[17]
  activity at 10 µM: 111%
[18]
  activity at 10 µM: 137%
[19]
  activity at 10 µM: 76%
[20]
  activity at 10 µM: 111%
[21]
  activity at 10 µM: 80%
[22]
  activity at 10 µM: 90%
[23]
  activity at 10 µM: 102%
[24]
  activity at 10 µM: 126%
[25]
  activity at 10 µM: 99%
[26]
  activity at 10 µM: 107%

Reference: PMC9653409, “Generative deep learning enables the discovery of a potent and selective RIPK1 inhibitor” (Nature Communications, 2022)
